Reference: US7332489B2, “Methods and compositions of novel triazine compounds” (Reddy US Therapeutics, Inc., priority 2003, dated 2008)
Read-outs that look alike come from different tables or passages of the source.

Tested on: TNF-α induced IL-6
Assay: TNF-α-induced IL-6 production determined by IL-6 ELISA
Assay type: cell-based
Details: for inhibition at 10 µM: read-out: Inflammation Data, inhibition at 10 uM; for Inflammation Data (result in words): concentration not given; for activity at 10 µM: class = % of control IL6 production
Description: Human aortic endothelial cells (HAEC, Clonetics) were cultured according to manufacturer in growth medium (Clonetics): basal medium containing human epidermal growth factor, hydrocortisone, vascular endothelial growth factor, heparin binding growth factor-B, long R3-insulin-like growth factor-1, ascorbic acid, gentamicin/amphotericin and 5% FBS. These cell were allowed to reach at least 90% confluency before subjected to experimental treatments. […] Tumor necrosis factor α was from R&D Systems.
All treatments, compound-added and controls were carried out in serum free media containing 0.2% albumin. Media from all conditions were collected and used for IL-6 ELISA.
IL-6 ELISA was carried out using human IL-6 DuoSet ELISA development kit as described by manufacturer (R&D Systems). Mouse anti-human Il-6 was used as the capture antibody (2 ug/ml) and biotinylated goat anti-human IL-6 (200 ng/ml) was used as the detection antibody. Culture media were incubated with capture antibody (in 96 well) for 2 h at room temperature. Wells were washed three times with wash buffer (0.05% tween-20 in phosphate buffered saline (PBS) pH 7.4) followed by incubation with detection antibody for 2 h at room temperature. Following three washes wells were incubated with Streptavidin-HRP for 20 min. Color development was read at 450 nm in a Microplate reader.

[1] = Homo sapiens, 24 h, Table 5, second part, column 1, read-out: Inhibition of TNF-induced IL6, production
[2] = Homo sapiens, 24 h, Table 5, first part, read-out: Inhibition of TNF-induced IL6 production

| SMILES | activity at 10 µM [1] | activity at 10 µM [2] | also measured |
| --- | --- | --- | --- |
| COc1ccc(Nc2nc(NC3CCCCCC3)nc(OC3CCCNC3)n2)cc1Cl (stereo not shown) | – | – | Inflammation Data, cell death at 10 uM (10 uM): 20%; inhibition at 10 µM (Homo sapiens, 10 uM): 60% |
| COc1ccc(Nc2nc(NC3CCCCCC3)nc(OC3CCNCC3)n2)cc1Cl | – | – | Inflammation Data, cell death at 10 uM (10 uM): 20% |
| COc1ccc(Nc2nc(NC3CCCCCC3)nc(OCC3CCCN3C)n2)cc1Cl (stereo not shown) | – | – | Inflammation Data, cell death at 10 uM (10 uM): total cell death; Inflammation Data, inhibition at 10 uM (10 uM): complete inhibition |
| COc1ccc(Nc2nc(NC3CCCCCC3)nc(OCCOc3ccccc3F)n2)cc1Cl | – | – | Inflammation Data (result in words): Not Active |
| COc1ccc(Nc2nc(NC3CCCCCC3)nc(OCc3cccc(C)n3)n2)cc1Cl | – | – | inhibition at 10 µM (Homo sapiens, 10 uM): 60% |
| CN(c1nc(Nc2ccc(O)cc2)nc(NC2CCCCCC2)n1)C1CCNCC1 | – | – | inhibition at 5 µM (Homo sapiens, read-out: Inflammation Data, inhibition at 5 uM): 50%; Inflammation Data, cell death at 5 uM (human, 24 h, 5 µM): 20%; Inflammation Data, cell death at 10 uM (human, 24 h, 10 µM): total cell death |
| COc1ccc(Nc2nc(NC3CCCCCC3)nc(NC3CCNCC3)n2)cc1 | – | – | Inflammation Data, cell death at 5 uM (5 uM): 20%; Inflammation Data, cell death at 10 uM (10 uM): > 50% |
| COc1ccc(Nc2nc(NC3CC3)nc(N(C)C3CCN(C)CC3)n2)cc1Cl | – | – | Inflammation Data, cell death at 10 uM (10 uM): 15%; Inflammation Data (result in words): Not active |
| CCN1CCCC1CNc1nc(Nc2ccc3ncccc3c2)nc(NC2CCCCCC2)n1 (stereo not shown) [Compound 4, N^2-cycloheptyl-N^4-[(1-ethyl-2-pyrrolidinyl)methyl]-N^6-(6-quinolinyl)-1,3,5-triazine-2,4,6-triamine] | 0 to 25% | – | – |
| CCN1CCCC1CNc1nc(Nc2ccc(F)cc2)nc(NC2CCCCCC2)n1 (stereo not shown) [Compound 10, N^2-cycloheptyl-N^4-[(1-ethyl-2-pyrrolidinyl)methyl]-N^6-(4-fluorophenyl)-1,3,5-triazine-2,4,6-triamine] | 0 to 25% | – | – |
| CCN1CCCC1CNc1nc(Nc2ccc(C#N)cc2)nc(NC2CCCCCC2)n1 (stereo not shown) [Compound 11, 4-[(4-(cycloheptylamino)-6-{[(1-ethyl-2-pyrrolidinyl)methyl]amino}-1,3,5-triazin-2-yl)-amino]benzonitrile] | 0 to 25% | – | – |
| CCN1CCCC1CNc1nc(Nc2ccc3c(c2)OCCO3)nc(NC2CCCCCC2)n1 (stereo not shown) [Compound 24, N^2-cycloheptyl-N^4-(2,3-dihydro-1,4-benzodioxin-6-yl)-N^6-[(1-ethyl-2-pyrrolidinyl)methyl]-1,3,5-triazine-2,4,6-triamine] | 0 to 25% | – | – |
| CCN1CCCC1CNc1nc(Nc2ccc(N(C)C)cc2)nc(NC2CCCCCC2)n1 (stereo not shown) [Compound 25, N^2-cycloheptyl-N^4-[4-(dimethylamino)phenyl]-N^6-[(1-ethyl-2-pyrrolidinyl)methyl]-1,3,5-triazine-2,4,6-triamine] | 0 to 25% | – | – |
| CCN(CC)c1ccc(Nc2nc(NCC3CCCN3CC)nc(NC3CCCCCC3)n2)cc1Cl (stereo not shown) [Compound 26, N^2-[3-chloro-4-(diethylamino)phenyl]-N^4-cycloheptyl-N^6-[(1-ethyl-2-pyrrolidinyl)methyl]-1,3,5-triazine-2,4,6-triamine] | – | 0 to 25% | cells floating (HAEC, 10 uM compound, seen in the TNF IL6 test): > 50% |
| CCN1CCCC1CNc1nc(Nc2ccc(N3CCOCC3)cc2)nc(NC2CCCCCC2)n1 (stereo not shown) [Compound 27, N^2-cycloheptyl-N^4-[(1-ethyl-2-pyrrolidinyl)methyl]-N^6-[4-(4-morpholinyl)phenyl]-1,3,5-triazine-2,4,6-triamine] | 0 to 25% | 0 to 25% | – |
| CCN1CCCC1CNc1nc(Nc2ccc(N3CCN(C)CC3)cc2)nc(NC2CCCCCC2)n1 (stereo not shown) [Compound 28, N^2-cycloheptyl-N^4-[(1-ethyl-2-pyrrolidinyl)methyl]-N^6-[4-(4-methyl-1-piperazinyl)phenyl]-1,3,5-triazine-2,4,6-triamine] | – | 0 to 25% | – |
| CCN1CCCC1CNc1nc(Nc2ccc(NC(C)=O)cc2)nc(NC2CCCCCC2)n1 (stereo not shown) [Compound 29, N-{4-[(4-(cycloheptylamino)-6-{[(1-ethyl-2-pyrrolidinyl)methyl]amino}-1,3,5-triazin-2-yl)-amino]phenyl}acetamide] | 0 to 25% | 0 to 25% | – |

| SMILES | activity at 10 µM [1] | activity at 10 µM [2] | also measured |
| --- | --- | --- | --- |
| CCN1CCCC1CNc1nc(Nc2cccc(NC(C)=O)c2)nc(NC2CCCCCC2)n1 (stereo not shown) [Compound 30, N-{3-[(4-(cycloheptylamino)-6-{[(1-ethyl-2-pyrrolidinyl)methyl]amino}-1,3,5-triazin-2-yl)-amino]phenyl}acetamide] | 0 to 25% | 0 to 25% | – |
| CCOc1ccc(Nc2nc(NCC3CCCN3CC)nc(NC3CCCCCC3)n2)cc1 (stereo not shown) [Compound 32, N^2-cycloheptyl-N^4-(4-ethoxyphenyl)-N^6-[(1-ethyl-2-pyrrolidinyl)methyl]-1,3,5-triazine-2,4,6-triamine] | 0 to 25% | – | – |
| CCN1CCCC1CNc1nc(Nc2ccccn2)nc(NC2CCCCCC2)n1 (stereo not shown) [Compound 34, N^2-cycloheptyl-N^4-[(1-ethyl-2-pyrrolidinyl)methyl]-N^6-(2-pyridinyl)-1,3,5-triazine-2,4,6-triamine] | 0 to 25% | 0 to 25% | – |
| CCN1CCCC1CNc1nc(Nc2ccccc2C)nc(NC2CCCCCC2)n1 (stereo not shown) [Compound 35, N^2-cycloheptyl-N^4-[(1-ethyl-2-pyrrolidinyl)methyl]-N^6-(2-methylphenyl)-1,3,5-triazine-2,4,6-triamine] | 0 to 25% | 25 to 50% | – |
| CCN1CCCC1CNc1nc(NC2CCCCCC2)nc(N(C)c2ccc(Cl)cc2)n1 (stereo not shown) [Compound 40, N^2-(4-chlorophenyl)-N^4-cycloheptyl-N^6-[(1-ethyl-2-pyrrolidinyl)methyl]-N^2-methyl-1,3,5-triazine-2,4,6-triamine] | 0 to 25% | – | – |
| CCN1CCCC1CNc1nc(NC2CCCCCC2)nc(N(CCC#N)c2ccccc2)n1 (stereo not shown) [Compound 41, 3-[(4-(cycloheptylamino)-6-{[(1-ethyl-2-pyrrolidinyl)methyl]amino}-1,3,5-triazin-2-yl)-(phenyl)amino]propanenitrile] | 0 to 25% | – | – |
| CCN1CCCC1CNc1nc(NC2CCCCCC2)nc(N(C)c2ccc(OC)cc2)n1 (stereo not shown) [Compound 42, N^2-cycloheptyl-N^4-[(1-ethyl-2-pyrrolidinyl)methyl]-N^6-(4-methoxyphenyl)-N^6-methyl-1,3,5-triazine-2,4,6-triamine] | 0 to 25% | 0 to 25% | – |
| CCN1CCCC1CNc1nc(NC2CCCCCC2)nc(N(C)c2ccc(F)cc2F)n1 (stereo not shown) [Compound 43, N^2-cycloheptyl-N^4-(2,4-difluorophenyl)-N^6-[(1-ethyl-2-pyrrolidinyl)methyl]-N^4-methyl-1,3,5-triazine-2,4,6-triamine] | 0 to 25% | – | – |
| CCN1CCCC1CNc1nc(NC2CCCCCC2)nc(N(CC#N)c2ccccc2)n1 (stereo not shown) [Compound 44, [(4-(cycloheptylamino)-6-{[(1-ethyl-2-pyrrolidinyl)methyl]amino}-1,3,5-triazin-2-yl)(phenyl)amino]acetonitrile] | 0 to 25% | – | – |
| CCN1CCCC1CNc1nc(NC2CCCCCC2)nc(N(C)c2cccc(Cl)c2)n1 (stereo not shown) [Compound 45, N^2-(3-chlorophenyl)-N^4-cycloheptyl-N^6-[(1-ethyl-2-pyrrolidinyl)methyl]-N^2-methyl-1,3,5-triazine-2,4,6-triamine] | 0 to 25% | – | – |
| CCN1CCCC1CNc1nc(NC2CCCCCC2)nc(N(C)c2ccccc2C(F)(F)F)n1 (stereo not shown) [Compound 46, N^2-cycloheptyl-N^4-[(1-ethyl-2-pyrrolidinyl)methyl]-N^6-methyl-N^6-[2-(trifluoromethyl)phenyl]-1,3,5-triazine-2,4,6-triamine] | 0 to 25% | – | – |
| CCN1CCCC1CNc1nc(Nc2ccc(OC)c(Cl)c2)nc(NC2CCCCCC2)n1 (stereo not shown) [Compound 48, N^2-(3-chloro-4-methoxyphenyl)-N^4-cycloheptyl-N^6-[(1-ethyl-2-pyrrolidinyl)methyl]-1,3,5-triazine-2,4,6-triamine] | – | 25 to 50% | – |
| CCNc1nc(NCC2CCCN2CC)nc(Nc2ccc(OC)c(F)c2)n1 (stereo not shown) [Compound 51, N^2-ethyl-N^4-[(1-ethyl-2-pyrrolidinyl)methyl]-N^6-(3-fluoro-4-methoxyphenyl)-1,3,5-triazine-2,4,6-triamine] | – | 0 to 25% | – |
| CCN1CCCC1CNc1nc(Nc2ccc(OC)c(F)c2)nc(NC(C)(C)C)n1 (stereo not shown) [Compound 52, N^2-(tert-butyl)-N^4-[(1-ethyl-2-pyrrolidinyl)methyl]-N^6-(3-fluoro-4-methoxyphenyl)-1,3,5-triazine-2,4,6-triamine] | 25 to 50% | 0 to 25% | – |
| CCN1CCCC1CNc1nc(NCc2ccccc2)nc(Nc2ccc(OC)c(F)c2)n1 (stereo not shown) [Compound 53, N^2-benzyl-N^4-[(1-ethyl-2-pyrrolidinyl)methyl]-N^6-(3-fluoro-4-methoxyphenyl)-1,3,5-triazine-2,4,6-triamine] | 25 to 50% | 0 to 25% | – |
| CCN1CCCC1CNc1nc(Nc2ccc(OC)c(F)c2)nc(NC2CCCCC2)n1 (stereo not shown) [Compound 55, N^2-cyclohexyl-N^4-[(1-ethyl-2-pyrrolidinyl)methyl]-N^6-(3-fluoro-4-methoxyphenyl)-1,3,5-triazine-2,4,6-triamine] | – | 0 to 25% | – |
| CCN1CCCC1CNc1nc(Nc2ccc(OC)c(F)c2)nc(NC2CCCC2)n1 (stereo not shown) [Compound 56, N^2-cyclopentyl-N^4-[(1-ethyl-2-pyrrolidinyl)methyl]-N^6-(3-fluoro-4-methoxyphenyl)-1,3,5-triazine-2,4,6-triamine] | – | 0 to 25% | – |
